Several values for one entry are separate records, joined by “and”; a condition that tells them apart may be missing. Equal values may be shown once.
What was measured:
Assay type in all cases: cell-based, Human
[1] = tested on: Calreticulin; test: FACS analysis of expression level of calreticulin on tumor cell surface; conditions: Toledo cells; for Mean Fluorescence Intensity (MFI) Calreticulin: 12 hours
Protocol: (§1) For FACS analysis, on the day of analysis (day 1), Toledo cells were seeded into 96 well plate and cultured at a density of 0.2×10^6 cells/well. Then the cells were treated with the selected small molecule therapeutic agents for 12 hours.
(§2) On day 2, cells were harvested, washed twice and then re-suspended in 100 uL FACS buffer subject to FACS analysis. For detection of the expression of calreticulin and CD47, cells were incubated with anti-calreticulin antibody and commercially available anti-CD47 antibody (BD Biosciences, Catalog number: 561249) in dark at 4° C. for 30 mins.
(§3) Then, the cells were subject to FACS analysis. Data was acquired and analyzed.

[2] = tested on: CD47; test: FACS analysis of expression level of CD47 on tumor cell surface; conditions: Toledo cells; for Mean Fluorescence Intensity (MFI) CD47: 12 hours
Protocol: as §1, §2, §3

[3] = tested on: macrophages; test: Macrophage Viability Assay (CellTiter-Glo); conditions: for Macrophage viability (CellTiter-Glo Luminescent Cell Viability Assay): 16 hours, three replicate lines
Protocol: Then, the monocytes isolated by MACS were subsequently cultured in fresh complete medium supplemented with recombinant human granulocyte-macrophage colony-stimulating factor GM-CSF (50 ng/ml) and human recombinant IL-4 (35 ng/ml) to activate differentiated macrophages. After 6 days of culture (on day 7), cells were harvested, pooled together and counted for next use.
The cells from Example 2 were plated into a 96-well flat bottom plate at a density of 0.05×10^6 cells/well. After 2 hours of incubation, the macrophages were well attached to the plate. Then selected small molecule therapeutic agents were added to the well and cocultured for 16 hours. On day 8, macrophage viability was assessed by CellTiter-Glo® Luminescent Cell Viability Assay, according to the manufacture's instruction.

Row | Compound | Mean Fluorescence Intensity (MFI) Calreticulin ([1]; 0.008 uM) | Mean Fluorescence Intensity (MFI) Calreticulin ([1]; 0.04 uM) | Mean Fluorescence Intensity (MFI) Calreticulin ([1]; 0.2 uM) | Mean Fluorescence Intensity (MFI) Calreticulin ([1]; 1 uM) | Mean Fluorescence Intensity (MFI) Calreticulin ([1]; 5 uM) | Mean Fluorescence Intensity (MFI) CD47 ([2]; 0.008 uM) | Mean Fluorescence Intensity (MFI) CD47 ([2]; 0.04 uM) | Mean Fluorescence Intensity (MFI) CD47 ([2]; 0.2 uM) | Mean Fluorescence Intensity (MFI) CD47 ([2]; 1 uM) | Mean Fluorescence Intensity (MFI) CD47 ([2]; 5 uM) | Macrophage viability (CellTiter-Glo Luminescent Cell Viability Assay) ([3]; Cpd 0.002 uM) | Macrophage viability (CellTiter-Glo Luminescent Cell Viability Assay) ([3]; Cpd 0.008 uM) | Macrophage viability (CellTiter-Glo Luminescent Cell Viability Assay) ([3]; Cpd 0.04 uM) | Macrophage viability (CellTiter-Glo Luminescent Cell Viability Assay) ([3]; Cpd 0.2 uM) | Macrophage viability (CellTiter-Glo Luminescent Cell Viability Assay) ([3]; Cpd 1 uM) | Macrophage viability (CellTiter-Glo Luminescent Cell Viability Assay) ([3]; Cpd 5 uM) | Macrophage viability (CellTiter-Glo Luminescent Cell Viability Assay) ([3]; Cpd 25 uM) | Macrophage viability (CellTiter-Glo Luminescent Cell Viability Assay) ([3]; Cpd 50 uM) | toxicity to macrophages ([3]; dose of 0.1-50 μM) | further results
1 | COc1c(OCCCN2CCOCC2)ccc2c1N=C(NC(=O)c1cnc(N)nc1)N1CCN=C21 [Copanlisib] | 69.8 | 77 | 79.4 | 106 | 142 | 8024 | 8243 | 7844 | 7097 | 6803 | 5856 and 5928 and 6000 | 5272 and 4772 and 5388 | 4856 and 5120 and 4872 | 4572 (2×) and 4928 | 4156 and 4492 and 4368 | 3780 and 4352 and 4196 | 4108 and 4176 and 4248 | 2748 and 3032 and 3028 | obvious toxicity | effect on expression level of Calreticulin [1]: only slightly increased; effect on CD47 expression level [2]: only slightly inhibited
2 | C[C@H](Nc1ncnc2nc[nH]c12)c1cc2cccc(Cl)c2c(=O)n1-c1ccccc1 [Duvelisib] | 71.4 | 71.2 | 71.4 | 75.7 | 75.9 | 8368 | 8376 | 8471 | 8432 | 8482 | 5688 and 5876 and 6184 | 5484 and 5444 and 5664 | 5228 and 5348 and 5760 | 5028 and 4984 and 5264 | 4592 and 4776 and 4880 | 4464 and 4584 and 4404 | 4176 and 4276 and 4156 | 3972 and 3992 and 3860 | obvious toxicity | –
3 | C=CC(=O)N1CCC[C@@H](n2nc(-c3ccc(Oc4ccccc4)cc3)c3c(N)ncnc32)C1 [Ibrutinib] | 70.6 | 73.1 | 74.5 | 69.9 | 79 | 8453 | 8490 | 8415 | 8345 | 8345 | 4948 and 4988 and 5520 | 4880 and 5316 and 5780 | 4688 and 5488 and 5780 | 4932 and 5736 and 6152 | 5056 and 5624 and 6224 | 4864 and 5828 and 6004 | 4680 and 5100 and 5572 | 3732 and 4296 and 4508 | – | toxicity to macrophages ([3]; dose as high as 50 μM): showed toxicity; toxicity to macrophages ([3]; dose lower than 10 μM): little toxic
4 | CC[C@H](Nc1ncnc2[nH]cnc12)c1nc2cccc(F)c2c(=O)n1-c1ccccc1 [Idelalisib] | 69.4 | 72.9 | 70.6 | 77.6 | 75.8 | 8342 | 8538 | 8246 | 8465 | 8263 | 5888 and 5908 and 5980 | 6164 and 6056 and 5948 | 6144 and 6304 and 5916 | 6040 and 6048 and 6220 | 5376 and 5640 and 5744 | 5092 and 5220 and 5060 | 4508 and 4884 and 4908 | 4404 and 4648 and 4964 | obvious toxicity | –
